We go through one compound from publication PMC11013998, “Preparation of Peptoid Antifreeze Agents and Their Structure–Property Relationship” (Polymers, 2024).

Structures are written as SMILES.

The test system of the series is Mouse fibroblasts (L929). Nature of the series: Cytotoxicity test, Cell Counting Kit-8 (CCK8). The format is cell-based. To be noted: L929 cells, 10 mg/mL in culture medium, 24 h, CCK-8, OD at 450 nm; non-cytotoxic if higher than 75%; tested at least three times. On the procedure:
Cytotoxicity testing is a crucial strategy used to test the safety of biological materials. This experiment employed a low-speed centrifuge (SC-3610, Anhui Zhongke Zhongjia scientific Instrument Co., Ltd., Hefei, China), a cell incubator (CCL-170B-8, ESCO, Kuala Lumpur, Singapore) and a multifunctional microplate detector (Synergy H1, Bio-Tek, Winooski, VT, USA). In this test, the cytotoxicity of peptoid oligomers was detected using Cell Counting Kit-8 (CCK8, Finn Biological Co., Ltd., Wuhan, China). Mouse fibroblasts (L929) were cultured and subcultured to ensure that they met the experimental requirements. The old culture medium was removed from the cell dish, and 1 mL trypsin was added to digest the cells. A total of 2 mL of the new culture medium was added to the cell culture dish, and the cells were centrifuged to the bottom of the centrifuge tube. The culture medium was removed. An appropriate amount of new culture medium was added, and the centrifuge tube was shaken gently to disperse the cells evenly. […] Finally, the Optical Density (OD) at 450 nm was measured using a BioTek multifunctional microplate detector. The relative survival rate (σ) could be calculated using the following formula:(1) σ=OD1−OD0/OD2−OD0×100% where OD1 was the average OD of the experimental group, OD2 was the average OD of the negative control group, and OD0 was the average OD of the blank control group. […]
A general note: Formazan colour is commonly taken as a measure of viable cells.

For `C[S+](C)[O-]` [DMSO, dimethyl sulfoxide], the relative cell viability was found to be 61.9%.
